Data as given in the NIST ThermoML archive (doi:10.1016/j.fluid.2018.02.015).
Numbers after ± are expanded uncertainties.

Tests used:
[1] = 99.9 kPa, Liquid, Vibrating tube method
[2] = refractive index (Na D-line) (dimensionless); conditions: 99.9 kPa, Liquid, Standard Abbe refractometry

| mass density ([1]; 293.15 K) [kg/m3] | mass density ([1]; 294.15 K) [kg/m3] | mass density ([1]; 295.15 K) [kg/m3] | mass density ([1]; 296.15 K) [kg/m3] | mass density ([1]; 297.15 K) [kg/m3] | mass density ([1]; 298.15 K) [kg/m3] | mass density ([1]; 299.62 K) [kg/m3] | refractive index ([2]; 293.15 K) | refractive index ([2]; 298.15 K) | mass density ([1]; 299.75 K) [kg/m3] | Compound |
| --- | --- | --- | --- | --- | --- | --- | --- | --- | --- | --- |
| 729.762 ± 0.33 | 728.496 ± 0.29 | 727.738 ± 0.26 | 726.983 ± 0.26 | 726.227 ± 0.26 | 725.467 ± 0.26 | 724.355 ± 0.26 | 1.41196 ± 0.0005 | 1.40964 ± 0.0005 |  | CCCCCCCCCC [decane] |
| 717.883 ± 0.33 | 716.601 ± 0.29 | 715.824 ± 0.26 | 715.045 ± 0.26 | 714.268 ± 0.25 | 713.689 ± 0.24 |  | 1.40595 ± 0.00049 | 1.40329 ± 0.00049 |  | CCCCCCCCC [nonane] |
| 739.96 ± 0.29 |  | 737.96 ± 0.27 |  | 736.48 ± 0.25 | 735.73 ± 0.25 |  | 1.41726 ± 0.00049 | 1.41502 ± 0.00049 | 734.56 ± 0.25 | CCCCCCCCCCC [undecane] |
